Data: publication PMC4436593, “Endoplasmic reticulum stress-independent activation of unfolded protein response kinases by a small molecule ATP-mimic” (eLife, 2015)
Values belong to the molecule of their own block, whether it stands above or below them.

Tests used:
IRE1α-KR43 [1] = target: T1, IRE1α-KR43 (Homo sapiens, UniProt O75460); assay: FRET-based RNA cleavage assay (fluorescent HP17 substrate) of IRE1α-KR43 RNase activity
[2] = target: T2, GST-PERK kinase domain (580–1077 aa) (Mus musculus, UniProt Q9Z2B5); assay: In vitro GST-PERK kinase assay (eIF2α phosphorylation with γ-[32P]-ATP)
T2 sequence (Q9Z2B5 580-1077): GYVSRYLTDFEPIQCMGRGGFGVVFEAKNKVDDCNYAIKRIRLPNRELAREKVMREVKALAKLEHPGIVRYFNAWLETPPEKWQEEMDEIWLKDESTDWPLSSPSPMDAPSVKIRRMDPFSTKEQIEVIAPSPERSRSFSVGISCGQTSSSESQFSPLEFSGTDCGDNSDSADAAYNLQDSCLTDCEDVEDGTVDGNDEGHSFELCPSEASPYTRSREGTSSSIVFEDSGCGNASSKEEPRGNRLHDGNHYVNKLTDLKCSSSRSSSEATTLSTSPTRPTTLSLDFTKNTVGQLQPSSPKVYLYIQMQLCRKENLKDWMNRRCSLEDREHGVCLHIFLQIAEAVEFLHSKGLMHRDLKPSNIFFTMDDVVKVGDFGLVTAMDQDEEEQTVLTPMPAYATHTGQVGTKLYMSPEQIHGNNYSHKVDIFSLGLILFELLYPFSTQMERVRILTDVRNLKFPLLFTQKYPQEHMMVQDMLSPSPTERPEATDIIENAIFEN

IRE1α-KR43 [3] = target: T1, IRE1α-KR43; assay: IRE1α-KR43 RNA cleavage assay with 5′ [32P]-labeled RNA substrate HP21 (kobs, single turnover); format: biochemical; parameters: IRE1α-KR43 comprises the soluble cytoplasmic portion of IRE1α, composed of the kinase and RNase domains plus 43 amino acids of the linker; 6xHis (N, cleaved yes); made in house; host or cells: SF21 insect cells; conditions: for fold activation of IRE1α-KR43 RNase activity / IRE1α RNase activation (in words): compounds 1 μM, IRE1α-KR43 200 nM; for fold activation of IRE1α-KR43 RNase activity: [32P]-labeled HP21; for IRE1α RNase activation (in words): versus DMSO control or cmp6/cmp7
Method: To this end, we modified the molecule by substituting urea-linked and variably m- and p-substituted phenyl groups for the benzimidazole of APY29. Diphenyl urea linkers have previously been used successfully in the design of kinase inhibitors ([Dar et al., 2008]; [Dar and Shokat, 2011]; [Korennykh et al., 2012]). In exploring the addition of this chemotype on the APY29 scaffold, we generated a panel of 10 variants (Figure 1B). Each member of the panel was tested in an RNase activity assay using recombinant IRE1α-KR43 and a labeled short hairpin RNA substrate derived from human XBP1 mRNA. IRE1α-KR43 comprises the soluble cytoplasmic portion of IRE1α, composed of the kinase and RNase domains plus 43 amino acids of the linker that bridges the kinase to its transmembrane domain.
Human IRE1α-KR43 with a hexa-histidine (6xHis) tag in its N-terminus was expressed and purified in SF21 cells as described ([Li et al., 2010]). Cells were lysed in buffer containing 20 mM Tris-HCl, pH 7.5, 600 mM NaCl, 2 mM MgCl2, 3 mM imidazole, 10% glycerol, 1% Triton X-100, 3 mM β-mercaptoethanol, COMPlete protease inhibitors (Roche), and PhosSTOP phosphatase inhibitor cocktail (Roche) and passed through an AVESTIN emulsiflex-C3 3× times for complete lysis. The lysate was cleared using centrifugation at 100,000×g. Clear lysate was allowed to incubate on Ni-NTA agarose (Qiagen) beads for 2 hr before being washed 3× times with buffer containing 20 mM Tris-HCl, pH7.5, 600 mM NaCl, 2 mM MgCl2, 30 mM imidazole, 10% glycerol, and 3 mM β-mercaptoethanol. Protein was eluted from the column by raising the imidazole concentration to 250 mM. The eluate was then passed through a HiTrap desalting column (GE Healthcare). Lastly, the 6xHis was cleaved as described ([Li et al., 2010]) and the resulting protein was then loaded onto a HisTrap HP, 5 × 5 ml column to remove the uncleaved protein. The cleaved protein was then loaded on a Mono-S 5/50 GL column (GE Healthcare), and the eluate was then concentrated to 5 mg/ml and loaded on a Superdex 200 HR 10/300 (GE Healthare) column in buffer containing 20 mM Tris-HCl pH 7.5, 250 mM NaCl, 5% Glycerol and 5 mM tris(2-carboxyethyl)phosphine (TCEP). The pure protein solution was aliquoted and stored at −80°C.

HEK293T cells = assay: HEK293T cell viability (CellTiter-Blue, 24 hr); format: cell-based; conditions: STS dose response + 1 μM GSK PERK inhibitor
Method: HEK293T cells were grown in DMEM (Sigma) complete media containing 10% FBS, 10 units/ml penicillin (Invitrogen), and 10 μg/ml streptomycin (Invitrogen). Cells were plated at a density of 30,000 cells per well in 96-well black plates with clear flat bottoms (Corning, Sigma-Aldrich) 24 hr before the experiment. A 12-point semi-logarithmic dilution series of compounds was made starting at 30 μM not to exceed 0.1% DMSO after final dilution into the growth media. Viability assays were conducted over the course of 24 hr. Cell viability was determined using CellTiter-Blue (Promega) following the manufacturer's instructions. […] Experiments were done in triplicate, and mean values were computed for each data point.

[4] = system: IRE1α-GFP in T-REx293 cells; assay: IRE1-GFP foci formation in T-REx293 cells (confocal microscopy); format: cell-based; conditions: doxycycline-induced IRE1α-GFP
Source text: We next used a T-REx293 cell line, containing a genome-integrated doxycycline-inducible IRE1α-GFP fusion gene, to monitor IRE1α oligomerization in vivo ([Li et al., 2010]). In the presence of doxycycline, IRE1α-GFP was expressed and localized to the ER (Figure 2D). […] Furthermore, the foci dissolved by 8 hr of treatment as cells attenuated IRE1α signaling even in the presence of unmitigated ER stress (Figure 2D, upper panels) ([Li et al., 2010]). […] While Tm-induced foci became larger and fewer over time as previously observed, IPA-induced foci remained small and numerous.
T-REx293 cells were split 2 days before imaging onto glass-bottom micro-well dishes (MatTek) at 5 × 10^4 cells/dish. Doxycyclin-containing medium (10 nM doxycycline) was added for 24 hr, withdrawn before imaging and replaced with imaging media (Hank's Balanced Salt Solution [Gibco], 2% FBS, and 5 mM HEPES pH 7.0). Images were acquired on a spinning-disk confocal microscope as described ([Li et al., 2010]).

[5] = system: ATF6 transcriptional targets HERPUD1 (HERP1) and DERLIN3 (DERL3); assay: ATF6 target mRNAs HERP1 and DERL3 by RT-PCR in HEK293T cells; format: cell-based; conditions: IPA 1 μM and 4 μM, Tm
Source text: To assess the effects of IPA on the activity of the two other UPR branches, we first examined activation of ATF6. To this end, we monitored mRNA levels by RT-PCR for two ATF6-driven transcriptional target genes, HERP1 and DERL3, in HEK293T cells.
Cells were lysed and total RNA was collected (Total RNA Kit 1, EZ-RNA, EZNA [USA]). PolyA^+ mRNA was reverse transcribed with M-MLV (Invitrogen), and the resulting cDNA was used as a template for PCR amplification across the fragment of XBP1 cDNA containing the intron. Primers used to amplify human XBP1: 5′-[…]-3′ and 5′-[…]-3′. To amplify murine XBP1: 5′-[…]-3′ and 5′-[…]-3′. PCR conditions were as follows: 95°C for 5 min, 95°C for 1 min, 58°C for 30 s, 72°C for 30 s, and 72°C for 5 min, with 20 cycles of amplification. PCR products were resolved on a 2.5% agarose tris-acetate EDTA (TAE) gel. As previously reported, a hybrid amplicon species consisting of unspliced Xbp-1 annealed to spliced Xbp-1 can also be produced through this PCR reaction and was visible as a slower migrating band above the unspliced amplicon. The same cDNA was used as template for PCR of DERLIN-3 and HERPUD1, both ATF6 targets, and GAPDH, which was used as loading control. Primers used included the following: DERLIN-3, 5′-[…]-3′ and 5′-[…]-3′; HERPUD1-1, 5′-[…]-3′ and 5′-[…]-3′; GAPDH, 5′-[…]-3′ and 5′-[…]-3′. […]

[6] = target: the molecule itself; assay: cell-based or functional assay
[7] = target: the molecule itself; assay: SEC; GST-PERK purified on GST-Sepharose and Superdex 200 10/300 gel filtration in buffer B (50 mM Tris pH 7.5, 50 mM NaCl, 5 mM MgCl2, 3 mM DTT, 1% glycerol); the paper does not say how the dimer was determined
[8] = compound 20 μM, RNase activity as a function of IRE1α-KR43 concentration

T1 sequence (O75460 465-977 limits assumed): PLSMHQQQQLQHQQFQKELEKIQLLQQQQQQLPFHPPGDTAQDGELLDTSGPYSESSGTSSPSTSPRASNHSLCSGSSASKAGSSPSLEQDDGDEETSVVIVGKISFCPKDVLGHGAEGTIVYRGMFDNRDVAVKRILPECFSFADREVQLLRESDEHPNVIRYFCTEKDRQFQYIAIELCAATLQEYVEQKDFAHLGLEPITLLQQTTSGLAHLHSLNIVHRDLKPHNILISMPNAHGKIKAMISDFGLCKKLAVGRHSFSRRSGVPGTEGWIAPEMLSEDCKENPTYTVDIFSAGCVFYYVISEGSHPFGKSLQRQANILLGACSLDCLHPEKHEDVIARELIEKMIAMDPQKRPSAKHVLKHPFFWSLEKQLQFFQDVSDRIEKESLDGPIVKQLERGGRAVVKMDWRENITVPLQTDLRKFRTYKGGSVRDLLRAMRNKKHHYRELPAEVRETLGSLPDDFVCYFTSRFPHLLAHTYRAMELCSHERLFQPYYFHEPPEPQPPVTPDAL

- fold activation of IRE1α-KR43 RNase activity (IRE1α-KR43 [3]): 10–100 fold
Molecule: COc1cccc(NC(=O)Nc2ccc(Nc3nccc(Nc4cc(C5CC5)[nH]n4)n3)cc2)c1 [cmp4]

- fold activation of IRE1α-KR43 RNase activity (IRE1α-KR43 [3]): 10–100 fold
Molecule: COc1ccc(NC(=O)Nc2ccc(Nc3nccc(Nc4cc(C5CC5)[nH]n4)n3)cc2)cc1 [cmp5]

- fold activation of IRE1α-KR43 RNase activity (IRE1α-KR43 [3]): 900 fold
Molecule: O=C(Nc1ccc(I)cc1)Nc1ccc(Nc2nccc(Nc3cc(C4CC4)[nH]n3)n2)cc1 [cmp7]

- IRE1α RNase activation (in words) (IRE1α-KR43 [3]): decreased activities
Molecule: O=C(Nc1ccc(Br)cc1)Nc1ccc(Nc2nccc(Nc3cc(C4CC4)[nH]n3)n2)cc1 [cmp8]

- IRE1α RNase activation (in words) (IRE1α-KR43 [3]): decreased activities
Molecule: CC(C)c1ccc(NC(=O)Nc2ccc(Nc3nccc(Nc4cc(C5CC5)[nH]n4)n3)cc2)cc1 [cmp9]

- IRE1α RNase activation (in words) (IRE1α-KR43 [3]): decreased activities
Molecule: CC(C)(C)c1ccc(NC(=O)Nc2ccc(Nc3nccc(Nc4cc(C5CC5)[nH]n4)n3)cc2)cc1 [cmp10]

Continued, molecule first:

Molecule: c1cc(Nc2cc(C3CC3)[nH]n2)nc(Nc2ccc3[nH]cnc3c2)n1 [APY29, reference compound]
- EC50 (IRE1α-KR43 [1]): 5.2 µM
- IC50 [2]: 690 nM
- fold activation of IRE1α-KR43 RNase activity (IRE1α-KR43 [3]): fivefold

Molecule: CN[C@@H]1C[C@H]2O[C@@](C)([C@@H]1OC)n1c3ccccc3c3c4c(c5c6ccccc6n2c5c31)C(=O)NC4 [STS, staurosporine, reference compound]
- change of cell viability dose response in the presence of 1 μM GSK (HEK293T cells): No change in cell viability was observed

Molecule: O=C(Nc1ccc(Nc2nccc(Nc3cc(C4CC4)[nH]n3)n2)cc1)Nc1cccc(C(F)(F)F)c1 [cmp1]
- EC50 (IRE1α-KR43 [1]): 0.95 µM
- IC50 [2]: 4500 nM
- fold lower enzyme concentration at ½ kmax, obs versus no activator (IRE1α-KR43 [3]; compound 20 μM): 3 fold
- 1/2kmax, obs (IRE1α-KR43 concentration at half-maximal kobs) (IRE1α-KR43 [3]; [8]): 3 µM
- Hill coefficient n (IRE1α-KR43 [3]; [8]): 3.8
- fold activation of IRE1α-KR43 RNase activity (IRE1α-KR43 [3]): 10–100 fold

Molecule: Cc1ccc(NC(=O)Nc2ccc(Nc3nccc(Nc4cc(C5CC5)[nH]n4)n3)cc2)cc1 [cmp2]
- fold activation of IRE1α-KR43 RNase activity (IRE1α-KR43 [3]): 10–100 fold

Molecule: CCc1ccc(NC(=O)Nc2ccc(Nc3nccc(Nc4cc(C5CC5)[nH]n4)n3)cc2)cc1 [cmp3]
- fold activation of IRE1α-KR43 RNase activity (IRE1α-KR43 [3]): 10–100 fold

Molecule: tunicamycin [Tm, reference compound]
- IRE1α-GFP foci formation [4]: rapidly induced the relocalization of IRE1α-GFP into discrete foci
- induction of ATF6 target genes HERP1 and DERL3 [5]: induced the expression of these two genes

B1: PERK cytosolic domain (535–1093 Δ660–868) (domain or fragment, human, UniProt Q9NZJ5 535-1093, looked up)
chain: ATTFIVRRLFHPHPHRQRKESETQCQTENKYDSVSGEANDSSWNDIKNSGYISRYLTDFEPIQCLGRGGFGVVFEAKNKVDDCNYAIKRIRLPNRELAREKVMREVKALAKLEHPGIVRYFNAWLKNTTEKLQPSSPKVYLYIQMQLCRKENLKDWMNGRCTIEERERSVCLHIFLQIAEAVEFLHSKGLMHRDLKPSNIFFTMDDVVKVGDFGLVTAMDQDEEEQTVLTPMPAYARHTGQVGTKLYMSPEQIHGNSYSHKVDIFSLGLILFELLYPFSTQMERVRTLTDVRNLKFPPLFTQKYPCEYVMVQDMLSPSPMERPEAINIIENAVFEDLDFPGKTVLRQRSR
- rate of eIF2α phosphorylation by the PERK cytoplasmic domain against IPA concentration, fold change normalised to DMSO control; greatest activation at 500 nM IPA [6]: 3.3 fold

B2: GST-PERK kinase domain (580–1077 aa) (domain or fragment, murine, UniProt Q9Z2B5 580-1077, looked up)
chain: T2 sequence (Q9Z2B5 580-1077)
notes: PERK, murine, cytosolic kinase domain, residues 580–1077; The dimer may therefore be held by GST; also called PERK-GST fusion protein; GST-PERK fusion protein; source: E. coli BL21DE3 RIPL, purified (GST-Sepharose, Superdex 200 10/300); not shown: GST, N-terminal, kept
- stoichiometry N [7]: 2
